From patent US7276606B2, “Phenantridine analogues and uses thereof” (4SC AG, priority 2004, dated 2007)

System: HaCaT keratinocytes
Assay: Influence on keratinocyte proliferation (HaCaT, Cell Titer Viability Assay)
Type: cell-based
Conditions: Homo sapiens, 25 μM test compound, KBM/FCS, 1% DMSO, 48 hrs incubation, read-out: inhibition of keratinocyte proliferation compared to control experiments
Procedure: Influence of Compounds According to the Invention on Keratinocyte Proliferation
5×10^3 HaCaT keratinocytes were seeded into 60 wells of 96 well plates in 200 μl KBM/10% FCS and incubated for 24 hrs at 37° C. The test compounds were dissolved at 100 mM in DMSO. The test items were then diluted to a concentration of 25 μM in KBM/FCS with a final concentration of 1% DMSO. The test compounds, as well as the negative control for unstimulated cells (KBM/1% DMSO) and stimulated cells (KBM/FCS/1% DMSO), were added to the HaCaTs in triplicates and incubated for 48 hrs. At the end of the incubation period, the media was removed and cell numbers were determined with Cell Titer Viability Assay from Promega (#G7571/G7572) according to the manufacturer's instructions.

Question: With COc1cccc(C(=O)N2c3ccccc3-c3ccccc3C2c2c[nH]c3ccccc23)c1 (stereo not shown) [Example 11, [6-(1H-Indol-3-yl)-6H-phenanthridin-5-yl]-(3-methoxy-phenyl)-methanone] as the compound, how does the inhibition at 25 µM read?
Answer: > 50%
